The values that follow come from ChEMBL document CHEMBL2417480, “Bioactive polyprenylated acylphloroglucinol derivatives from Hypericum cohaerens” (J Nat Prod, 2013).

The test system of test [1] is HL-60. Kind of test: Cytotoxicity against human HL60 cells after 48 hrs by MTT assay. The conditions noted are these: HL-60, 48 h. A general note: Tetrazolium assays rely on reduction of a dye to a coloured formazan, in cell work by metabolically active cells.
Test [2] concerns SW480. Nature of the test: Cytotoxicity against human SW480 cells after 48 hrs by MTT assay. Particulars: SW480, 48 h.
Test [3] concerns A549. Kind of test: Cytotoxicity against human A549 cells after 48 hrs by MTT assay. Particulars: A549, 48 h.
In test [4] the test system is SMMC-7721. Kind of test: Cytotoxicity against human SMMC7721 cells after 48 hrs by MTT assay. The conditions noted are these: SMMC-7721, 48 h.
The subject of test [5] is MCF7. Kind of test: Cytotoxicity against human MCF7 cells after 48 hrs by MTT assay. The conditions noted are these: MCF7, 48 h.

`CCC(C)C(=O)[C@@]12C(=O)C3=C(OC(C)(C)C=C3)[C@@](CC=C(C)C)(C[C@H](CC=C(C)C)[C@@]1(C)CCC=C(C)C)C2=O` (stereo partly drawn): the IC50 in test [1], in test [2], in test [3], in test [4] and in test [5] was over 20 µM throughout.

With `CC(C)=CCC[C@]1(C)[C@@H](CC=C(C)C)C[C@]23C[C@@H](C(C)C)OC2=C(CC=C(C)C)C(=O)[C@@]1(C(=O)C(C)C)C3=O`, the IC50 in test [1], in test [2], in test [3], in test [4] and in test [5] was over 20 µM throughout.

On to `CCC(C)C(=O)[C@@]12C(=O)C(CC=C(C)C)=C3O[C@@H](C(C)(C)O)C[C@]3(C[C@H](CC=C(C)C)[C@@]1(C)CCC=C(C)C)C2=O` (stereo partly drawn), for which the IC50 in test [1], in test [2], in test [3], in test [4] and in test [5] was over 20 µM in each case.

Turning to `CC(C)=CCC[C@]1(C)[C@@H](CC=C(C)C)C[C@]23C[C@H](C(C)(C)O)OC2=C(CC=C(C)C)C(=O)[C@@]1(C(=O)C(C)C)C3=O`, the IC50 in test [1], in test [2], in test [3], in test [4] and in test [5] was over 20 µM throughout.

With `CC(C)=CCC[C@]1(C)[C@@H](CC=C(C)C)C[C@]23C[C@@H](C(C)(C)O)OC2=C(C[C@@H]2OC(C)(C)[C@@H](CO)C2(C)C)C(=O)[C@@]1(C(=O)C(C)C)C3=O`, the IC50 (commonly the concentration needed to halve the response being measured) is 5.8 µM in test [1]; 15.6 µM in test [2]; 11.3 µM in test [3]; over 20 µM in test [4]; 10.2 µM in test [5].

As to `CC(C)=CCC[C@]1(C)[C@@H](CC=C(C)C)C[C@]23C[C@@H](C(C)(C)O)OC2=C(C[C@@H]2OC(C)(C)[C@@H](CO)C2(C)C)C(=O)[C@@]1(C(=O)c1ccccc1)C3=O`, the IC50 in test [1] was 12.6 µM; in test [2], 9.2 µM; in test [3] it was 17.9 µM; in test [4], 8.2 µM; in test [5], over 20 µM.

`CC(C)=CCC[C@]1(C)[C@@H](CC=C(C)C)C[C@]23C[C@@H](C(C)(C)O)OC2=C(C[C@H]2OC(C)(C)[C@H](CO)C2(C)C)C(=O)[C@@]1(C(=O)C(C)C)C3=O`: the IC50 in test [1] is 8.8 µM; in test [2], 7.4 µM; in test [3], 5.6 µM; in test [4], 9.5 µM; in test [5] it was 9.3 µM.

Take `CC(C)=CCC[C@]1(C)[C@@H](CC=C(C)C)C[C@]23C[C@@H](C(C)C)OC2=C(CC=C(C)C)C(=O)[C@@]1(C(=O)c1ccccc1)C3=O`: the IC50 in test [1], in test [2], in test [3], in test [4] and in test [5] was over 20 µM each time.

For the molecule `CC(=O)O[C@H]1C(=O)[C@@]2(C)[C@H]([C@H](OC(=O)c3ccccc3)[C@]3(O)C[C@H](OC(=O)[C@H](O)[C@@H](NC(=O)c4ccccc4)c4ccccc4)C(C)=C1C3(C)C)[C@]1(OC(C)=O)CO[C@@H]1C[C@@H]2O` [PACLITAXEL], the IC50 in test [1], in test [4] and in test [5] was under 0.008 µM each time.
